Measurements taken from patent publication US20100196273A1, “NOVEL AGENT FOR IN VIVO PET IMAGING OF TUMOR PROLIFERATION” (Board of Regents, University of Texas System, priority 2007, published 2010).

What was measured:
[1] = test system: hepatitis B virus (HBV); conditions: reported, Liu et al. 1998; cited from earlier work
[2] = test system: Epstein-Barr virus; conditions: reported, Liu et al. 1998; cited from earlier work
[3] = reported, Liu et al. 1998; cited from earlier work
[4] = test system: human immunodeficiency virus; conditions: reported, Liu et al. 1998; cited from earlier work
[5] = test system: Colo205 human colon cancer tumor xenografts; test: micro-PET imaging of tumor proliferative activity, Colo205 colon cancer xenografts; type: in vivo, nude mice; conditions: 3.7 MBq via tail vein, 2 h post-injection
Method: The radiotracers, [^18F]-FLT, [^18F]-D-FMAU and [^18F]-L-FMAU, were synthesized according literature methods in high specific activity. Human colon cancer cells, Colo205 were used to grow tumor xenografts in nude mice. Four nu/nu mice were injected (s.c.) with 3×10^6 cells onto the shoulder. When tumors were approximately 1 cm in diameter, PET imaging with [^18F]-FLT, [^18F]-D-FMAU [^18F]-L-FMAU were performed on three consecutive days using one tracer at a time. Each animal received 3.7 MBq of radiotracer via the tail vein, then dynamic imaging was performed using micro-PET up to 2 hours of post-injection.
However, tumor-to muscle ratio of [^18F]-FLT accumulation was lower than that of [^18F]-D-FMAU and [^18F]-L-FMAU. [^18F]-L-FMAU had higher uptake and tumor/muscle ratio compared to the D-[^18F]-FMAU, which is probably due to higher resistance to metabolic degradation.

[6] = test system: H3255 (slow growing) human NSCLC tumor xenografts; test: microPET imaging of tumor proliferative activity, H3255 NSCLC xenografts; type: in vivo, nude mice; conditions: 3.7 MBq via tail vein, 2 h post-injection
Method: (§1) All radiotracers were synthesized following literature methods. Two human NSCLC cell lines, H441 (rapidly growing) and H3255 (slow growing) were used to grow (s.c.) tumor xenografts in nude mice. Eight nu/nu mice were injected with 3×10^6 cells (H3255) onto right shoulder, and 3 weeks later, 3×10^6 cells (H441) were injected onto opposite shoulder. When tumors grew approximately 1 cm in diameter, PET imaging with [^18F]-FLT, [^18F]-D-FMAU [^18F]-L-FMAU were performed on three consecutive days. Each animal received 3.7 MBq of radiotracer via the tail vein, then dynamic scan was performed using micro-PET up to 2 hours of post-injection.
(§2) Tumor uptake and tumor-to-muscle (T/M) ratios of [^18F]-FLT, [^18F]-D-FMAU and [^18F]L-FMAU for different tumors are summarized in Table 1. […] On the other hand, tumor-to muscle ratio of [^18F]-FLT accumulation was higher than that for [^18F]-D-FMAU and [^18F]-L-FMAU.

[7] = test system: H441 (rapidly growing) human NSCLC tumor xenografts; test: microPET imaging of tumor proliferative activity, H441 NSCLC xenografts; type: in vivo, nude mice; conditions: 3.7 MBq via tail vein, 2 h post-injection
Method: as §1, §2

SMILES | antiviral activity against hepatitis B virus [1] | antiviral activity against Epstein-Barr virus [2] | cytotoxicity [3] | antiviral activity against human immunodeficiency virus [4] | Tumor uptake % ID/g [5] [% ID/g] | tumor-to-muscle (T/M) ratio [5] | Tumor uptake % ID/g [6] [% ID/g] | tumor-to-muscle (T/M) ratio [6] | Tumor uptake % ID/g [7] [% ID/g] | tumor-to-muscle (T/M) ratio [7]
Cc1cn([C@H]2O[C@@H](CO)[C@H](O)[C@H]2F)c(=O)[nH]c1=O [L-FMAU, 2′-Deoxy-2′-fluoro-5-methyl-1-β-L-arabinofuranosyl-uracil] | potential antiviral activities | potential antiviral activities | low cytotoxicity | not human immunodeficiency virus |  |  |  |  |  | 
Cc1cn([C@@H]2O[C@H](CO)[C@@H](O)[C@@H]2[18F])c(=O)[nH]c1=O [[^18F]-D-FMAU] |  |  |  |  | 2.37 ± 0.58 | 1.95 ± 0.37 | 4.49 ± 1.08 | 1.96 ± 0.74 | 7.74 ± 1.39 | 3.37 ± 1.19
Cc1cn([C@H]2C[C@H]([18F])[C@@H](CO)O2)c(=O)[nH]c1=O [[^18F]-FLT, [^18F]-3′-deoxy-3′-fluorothymidine] |  |  |  |  | 5.20 ± 1.32 | 1.51 ± 0.61 | 0.57 ± 0.33 | 1.50 ± 0.90 | 5.10 ± 1.45 | 12.94 ± 4.38
Cc1cn([C@H]2O[C@@H](CO)[C@H](O)[C@H]2[18F])c(=O)[nH]c1=O [[^18F]-L-FMAU, 2′ deoxy-2′-[^18F]-fluoro-5-methyl-1-β-L-arabinofuranosyluracil] |  |  |  |  | 2.93 ± 0.75 | 2.85 ± 0.89 | 1.38 ± 0.81 | 1.62 ± 0.50 | 3.13 ± 1.11 | 4.15 ± 1.82
